Data as given in patent US20230263822A1, “MODULATION OF FACTOR 11 EXPRESSION” (Ionis Pharmaceuticals, Inc., priority 2008, published 2023).
Strand notation (5' to 3'): a small letter for the sugar, then the base; units joined by * are phosphorothioate-linked, units joined directly phosphodiester-linked; [ ] holds rarer units or linkages, { } end groups; capitals alone tell only the bases. e = 2'-O-(2-methoxyethyl) (MOE); [5mC] = 5-methylcytosine; d = 2'-deoxy (DNA)

Experiments:
human Factor 11 mRNA [1] = assay: Antisense inhibition of human Factor 11 in HepG2 cells, lipofectin, 75 nM (Example 1); type: cell-based; conditions: 75 nM antisense oligonucleotide, ~24 h, relative to untreated control cells, gapmers targeted to SEQ ID NO: 1
Procedure, shortened: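 HepG2 cells transfected via lipofectin with 75 nM antisense oligonucleotide (5-10-5 MOE gapmers, 20-mers, phosphorothioate, 5-methylcytidines), treated ~24 h. Factor 11 mRNA quantified by real-time PCR, normalised to RIBOGREEN total RNA; percent inhibition versus untreated cells.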

human Factor 11 mRNA [2] = assay: Dose-dependent antisense inhibition of human Factor 11 in HepG2 cells, lipofectin 9.375-150 nM (Example 2); type: cell-based; conditions: ~16 h
[3] = Tolerability in Sprague-Dawley rats: body weight and organ weight (Example 44); type: in vivo; conditions: 50 mg/kg s.c. twice per week for 6 weeks; for Change in Kidney weight / Change in Liver weight / Change in Spleen weight: end of study
[4] = Tolerability in Sprague-Dawley rats: liver function (Example 44); type: in vivo; parameters: Albumin: unit not given here; conditions: 50 mg/kg s.c. twice per week for 6 weeks, plasma
[5] = Tolerability in CD1 mice: body weight and organ weight (Example 43); type: in vivo; conditions: 50 mg/kg s.c. twice per week for 6 weeks, end of study
[6] = Tolerability in Sprague-Dawley rats: hematology assays (Example 44); type: in vivo; conditions: 50 mg/kg s.c. twice per week for 6 weeks, blood
[7] = Tolerability in CD1 mice: kidney function, BUN, creatinine (Example 33); conditions: plasma, 50 mg/kg s.c. twice a week
[8] = Tolerability in CD1 mice: liver function, ALT, AST, bilirubin, albumin (Example 33); conditions: plasma, 50 mg/kg s.c. twice a week

| Substance | % inhibition (human Factor 11 mRNA [1]) | percent inhibition of Factor 11 at 9.375 nM (human Factor 11 mRNA [2]) | percent inhibition of Factor 11 at 18.75 nM (human Factor 11 mRNA [2]) | percent inhibition of Factor 11 at 37.5 nM (human Factor 11 mRNA [2]) | percent inhibition of Factor 11 at 75 nM (human Factor 11 mRNA [2]) | percent inhibition of Factor 11 at 150 nM (human Factor 11 mRNA [2]) | IC50 (human Factor 11 mRNA [2]) | body weight [3] | Change in Kidney weight [3] | Change in Liver weight [3] | Change in Spleen weight [3] | ALT [4] | AST [4] | Albumin [4] | Bilirubin [4] | Change in Kidney weight [5] | Change in Liver weight [5] | Change in Spleen weight [5] | Platelets [6] | RBC [6] | further results |
| --- | --- | --- | --- | --- | --- | --- | --- | --- | --- | --- | --- | --- | --- | --- | --- | --- | --- | --- | --- | --- | --- |
| 413482 (antisense GGACGGCATTGGTGCACAGT; 5-10-5 MOE gapmer, further chemistry not given here) [compound 413482] | 85% | 26% | 39% | 59% | 74% | 82% | 28 nM |  |  |  |  |  |  |  |  |  |  |  |  |  |  |
| ISIS 449709: 3-8-3, 4-8-4, 2-10-2, 3-10-3 or 4-10-4 MOE microwalk gapmer (Table 46) (antisense eG*e[5mC]*eA*e[5mC]*dA*dG*dT*dT*dT*d[5mC]*dT*dG*dG*d[5mC]*eA*eG*eG*e[5mC]) |  |  |  |  |  |  |  | 376 g | +19% | +8% | +231% | 63 IU/L | 126 IU/L | 3.1 | 0.2 mg/dL | −14% | +15% | +62% | 631 nL⁻¹ | 6.9 pL⁻¹ | WBC [6]: 14 nL⁻¹; hematocrit [6]: 41%; hemoglobin [6]: 12.6 g/dL; lymphocytes [6]: 91%; monocytes [6]: 3%; neutrophils [6]: 5% |
| 412224 (antisense GCATTGGTGCACAGTTTCTG; 5-10-5 MOE gapmer, further chemistry not given here) [compound 412224] | 87% | 24% | 45% | 57% | 70% | 81% | 28 nM |  |  |  |  |  |  |  |  |  |  |  |  |  |  |
| 412223 (antisense ACAGTTTCTGGCAGGCCTCG; 5-10-5 MOE gapmer, further chemistry not given here) [compound 412223] | 84% | 33% | 48% | 62% | 76% | 81% | 21 nM |  |  |  |  |  |  |  |  |  |  |  |  |  |  |
| ISIS 449708: 3-8-3, 4-8-4, 2-10-2, 3-10-3 or 4-10-4 MOE microwalk gapmer (Table 46) (antisense eA*e[5mC]*eA*dG*dT*dT*dT*d[5mC]*dT*dG*dG*e[5mC]*eA*eG) |  |  |  |  |  |  |  | 382 g | +40% | +31% | +259% | 25 IU/L | 90 IU/L | 3.2 | 0.1 mg/dL | 0% | +17% | +66% | 925 nL⁻¹ | 6.6 pL⁻¹ | WBC [6]: 22 nL⁻¹; hematocrit [6]: 40%; hemoglobin [6]: 12.2 g/dL; lymphocytes [6]: 92%; monocytes [6]: 2%; neutrophils [6]: 6% |
| ISIS 449710: 3-8-3, 4-8-4, 2-10-2, 3-10-3 or 4-10-4 MOE microwalk gapmer (Table 46) (antisense e[5mC]*eA*e[5mC]*dA*dG*dT*dT*dT*d[5mC]*dT*dG*dG*d[5mC]*eA*eG*eG) |  |  |  |  |  |  |  | 344 g | +50% | +82% | +302% | 36 IU/L | 211 IU/L | 2.9 | 0.1 mg/dL | −7% | +6% | +43% | 509 nL⁻¹ | 6.3 pL⁻¹ | WBC [6]: 13 nL⁻¹; hematocrit [6]: 41%; hemoglobin [6]: 12.5 g/dL; lymphocytes [6]: 91%; monocytes [6]: 2%; neutrophils [6]: 6% |
| 412225 (antisense GCAGCGGACGGCATTGGTGC; 5-10-5 MOE gapmer, further chemistry not given here) [compound 412225] | 86% | 32% | 42% | 65% | 78% | 73% | 23 nM |  |  |  |  |  |  |  |  |  |  |  |  |  |  |
| ISIS 449711: 3-8-3, 4-8-4, 2-10-2, 3-10-3 or 4-10-4 MOE microwalk gapmer (Table 46) (antisense eA*e[5mC]*dA*dG*dT*dT*dT*d[5mC]*dT*dG*dG*d[5mC]*eA*eG) |  |  |  |  |  |  |  | 362 g | +72% | +52% | +327% | 32 IU/L | 163 IU/L | 2.9 | 0.1 mg/dL | −12% | +18% | +63% | 919 nL⁻¹ | 6.4 pL⁻¹ | WBC [6]: 13 nL⁻¹; hematocrit [6]: 43%; hemoglobin [6]: 12.6 g/dL; lymphocytes [6]: 90%; monocytes [6]: 2%; neutrophils [6]: 7% |
| ISIS 449707: 3-8-3, 4-8-4, 2-10-2, 3-10-3 or 4-10-4 MOE microwalk gapmer (Table 46) (antisense e[5mC]*eA*e[5mC]*eA*dG*dT*dT*dT*d[5mC]*dT*dG*dG*e[5mC]*eA*eG*eG) |  |  |  |  |  |  |  | 352 g | +80% | +41% | +400% | 61 IU/L | 199 IU/L | 3.1 | 0.2 mg/dL | −5% | +11% | +63% | 722 nL⁻¹ | 6.0 pL⁻¹ | WBC [6]: 20 nL⁻¹; hematocrit [6]: 40%; hemoglobin [6]: 12.0 g/dL; lymphocytes [6]: 91%; monocytes [6]: 2%; neutrophils [6]: 6% |
| ISIS 417002: MOE gapmer, nucleobases 1275 to 1318 of SEQ ID NO: 1 (Table 8) (antisense GGTGCACAGTTTCTGGCAGG; MOE gapmer, wing and gap sizes not given here) |  |  |  |  |  |  |  |  |  |  |  |  |  |  |  |  |  |  |  |  | BUN ([7]; 2 weeks): 19 mg/dL; Creatinine ([7]; 2 weeks): 0.06 mg/dL; BUN ([7]; 4 weeks): 23 mg/dL; Creatinine ([7]; 4 weeks): 0.16 mg/dL; BUN ([7]; 6 weeks): 19 mg/dL; Creatinine ([7]; 6 weeks): 0.10 mg/dL; ALT ([8]; 2 weeks): 71 IU/L; AST ([8]; 2 weeks): 96 IU/L; Albumin ([8]; 2 weeks): 3.2; Bilirubin ([8]; 2 weeks): 0.50 mg/dL; ALT ([8]; 4 weeks): 138 IU/L; AST ([8]; 4 weeks): 87 IU/L; Albumin ([8]; 4 weeks): 3.4; Bilirubin ([8]; 4 weeks): 0.25 mg/dL; ALT ([8]; 6 weeks): 2579 IU/L; AST ([8]; 6 weeks): 1166 IU/L; Albumin ([8]; 6 weeks): 3.4; Bilirubin ([8]; 6 weeks): 0.29 mg/dL |
| 412206 (antisense e[5mC]*e[5mC]*eG*eT*eG*d[5mC]*dA*dT*d[5mC]*dT*dT*dT*d[5mC]*dT*dT*eG*eG*e[5mC]*eA*eT) [compound 412206] | 87% | 28% | 44% | 68% | 80% | 89% | 22 nM |  |  |  |  |  |  |  |  |  |  |  |  |  |  |
| ISIS 416838: MOE gapmer, nucleobases 1018 to 1042 of SEQ ID NO: 1 (Table 6) (antisense GCAACCGGGATGATGAGTGC; MOE gapmer, wing and gap sizes not given here) |  |  |  |  |  |  |  |  |  |  |  |  |  |  |  |  |  |  |  |  | BUN ([7]; 2 weeks): 25 mg/dL; Creatinine ([7]; 2 weeks): 0.09 mg/dL; BUN ([7]; 4 weeks): 38 mg/dL; Creatinine ([7]; 4 weeks): 0.27 mg/dL; BUN ([7]; 6 weeks): 30 mg/dL; Creatinine ([7]; 6 weeks): 0.14 mg/dL; ALT ([8]; 2 weeks): 61 IU/L; AST ([8]; 2 weeks): 106 IU/L; Albumin ([8]; 2 weeks): 3.5; Bilirubin ([8]; 2 weeks): 0.57 mg/dL; ALT ([8]; 4 weeks): 41 IU/L; AST ([8]; 4 weeks): 73 IU/L; Albumin ([8]; 4 weeks): 3.8; Bilirubin ([8]; 4 weeks): 0.24 mg/dL; ALT ([8]; 6 weeks): 141 IU/L; AST ([8]; 6 weeks): 107 IU/L; Albumin ([8]; 6 weeks): 3.6; Bilirubin ([8]; 6 weeks): 0.20 mg/dL |
